Assay results reported in patent publication EP3884948A1, “CATHEPSIN INHIBITORS AND USES THEREOF” (Ecole Polytechnique Fédérale de Lausanne (EPFL), priority 2020, dated 2021).

Tests used:
cathepsin S (CTSS) = target: T1, cathepsin S (CTSS) (Homo sapiens, UniProt P25774); assay: FRET assay for cathepsin S (inhibitor screen and substrate cleavage); type: biochemical; conditions: for cleavage by CTSS as substrate: FRET, CTSS-His-WT, SEQ ID NO: 1 compared with SEQ ID NO: 4; for inhibition of cathepsin S activity (MCA fluorescent emission): CTSS, peptide of SEQ ID NO: 1 as substrate, Fig. 3
T1 construct: made in house; host or cells: HEK293
T1 sequence (P25774 115-331): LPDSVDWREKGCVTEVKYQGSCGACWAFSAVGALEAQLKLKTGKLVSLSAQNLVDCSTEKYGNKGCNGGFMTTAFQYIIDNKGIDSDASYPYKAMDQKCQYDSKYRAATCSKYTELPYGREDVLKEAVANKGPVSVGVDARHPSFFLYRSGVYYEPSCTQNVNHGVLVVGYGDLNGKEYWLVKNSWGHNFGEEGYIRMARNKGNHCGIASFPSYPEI
Experimental: CTSS-His WT and Y132D were diluted to 10 µg/mL in Assay buffer (50 mM NaOAc, 5 mM DTT, 250 mM NaCl), at pH 4.5 and incubated at 37°C for 90 minutes to allow auto-activation. The proteins were then diluted to 0.5 ng/µl in Assay buffer and plated in 96-well plates (50 µl/well). The peptides of SEQ ID NO: 1, SEQ ID NO: 2, SEQ ID NO: 3, SEQ ID NO: 4 and SEQ ID NO: 5 were synthesized and diluted to 20 µM in a buffer (50 mM NaOAc, 5 mM DTT, 250 mM NaCl) then added to the activated CTSS (50 µl/well). 50 µM E64 (Selleckchem, cat #S7379) was added to CTSS prior to the substrate as positive control. A commercially available CTSS purified protein (R&D systems, cat #1183-CY-010) was in addition used as control. MCA emission was measured with SpectraMax iD3 (Molecular Devices) in kinetic mode for 20 minutes (excitation: 330 nm, emission: 390 nm).
The FRET assay was miniaturized to performed the screen in […] and each molecule was tested in duplicates. 10 µg/ml of CTSS was incubated in the activation buffer for 105 minutes to allow a complete activation of the enzyme. Then, the enzyme was diluted at 0.5 µg/ml and dispensed in […] pre-loaded with the small molecule candidates using an automatic dispenser (Biotek Dispenser multiflo). The plates were incubated for 10 minutes at room temperature and then 20 µM of substrate was added in each well and acquired the fluorescence signal (excitation: 330 nm, emission: 390 nm) after 90 minutes. For each plate, were included untreated wells as negative control and E64 was used (150 µM) as positive control. To assess the quality of the screen, a Z'-score for each plate was calculated and all plates had Z' score > 0.6. To identify possible hits, the average value and standard deviation of the positive and negative control were calculated. The upper and lower limit values for each plate were calculated considering plus/minus three times the standard deviation to the average and only compounds that in both independent duplicate scored below the positive control threshold were retained.

cathepsin B (CTSB) = cathepsin B (CTSB) (Homo sapiens, UniProt P07858); assay: FRET specificity assay for cathepsin B; type: biochemical; conditions: for inhibition of Cathepsin B activity (MCA fluorescent emission): CTSB, peptide of SEQ ID NO: 5 as substrate, Fig. 4
Experimental: (§1) First, specific conditions to activate the enzymes were used as follows: CTSB was diluted in active buffer (MES 25 mM, DTT 5 mM, pH 5) at 10 µg/ml, incubated at 37°C for 2h and then diluted to 1 µg/ml in assay buffer (MES 25 mM, pH 5) for the FRET assay. CTSH was diluted in a specific active buffer (MES 50 mM, CaCl2 10 mM, NaCl 150 mM, pH 6.5) 200 µg/ml. In addition, as co-stimulatory activator thermolysin diluted at 100 µg/ml in active buffer was used mixed with equal volume of the diluted CTSH. The solution was incubated for 1h room temperature and then we added 2 mM Phosporamidon diluted in assay buffer (MES 50 mM, pH 6,5) and incubate the mix for 10 minutes at room temperature. Lastly, an equal volume of assay buffer containing 20 mM DTT was added and the mixture incubated 5 minutes at room temperature. For the FRET assay, diluted both CTSH, and CTSB at 1 µg/ml were used in their specific assay buffer and incubated with a specific substrate. As substrate, the following peptides were used: peptide of SEQ ID NO: 5 (KPPKPVSD) in CTSB FRET assays and SEQ ID NO: 1 (KLRMKLPKP) in CTSH FRET assays and tested increasing doses of candidate inhibitors (20 µM, 10 µM, 1 µM, 0.1 µM). Fluorescence emission was measured with SpectraMax iD3 (Molecular Devices) in kinetic mode over three hours (excitation: 330 nm, emission: 390 nm).

[1] = test system: human lymphoma cancer cell lines (Karpas-422 and DoHH2); assay: Cell viability assay in lymphoma cell lines; type: cell-based; conditions: for toxicity / cell survival: Karpas-422 and DoHH2, 48h or 72h, increasing doses up to 50 µM
Experimental: Two human lymphoma cell lines DoHH2 and Karpas-422 and one murine lymphoma cell line A20 were treated with increasing concentration of compounds (1), (5) and (9). 24 hours before treatment cells were diluted at 2^∗10^5 cells/ml. Cell number was measured at 48h and 72h after treatment using automatic cell counting of Millipore Guava. The values were normalized to cells treated with the same dose of vehicle (DMSO).
Next, the toxicity of these inhibitors on two human lymphoma cancer cell lines (Karpas-422 and DoHH2). The cells were treated with the small molecules for 48h or 72h at increasing doses (50 µM, 10 µM, µM, 0.1 µM). […] Conversely, compound (9) progressively decreases cell proliferation of up to 50% after 72 hours of exposure to the 0. 1 µM of the compound or less than 30% in cells treated with 10 or 50 µM.

cathepsin H (CTSH) = cathepsin H (CTSH) (Homo sapiens, UniProt P09668); assay: FRET specificity assay for cathepsin H; type: biochemical; conditions: peptide of SEQ ID NO: 2 as substrate, Fig. 5
cathepsin H (CTSH), sequence (P09668 116-335 limits assumed, other chains not shown): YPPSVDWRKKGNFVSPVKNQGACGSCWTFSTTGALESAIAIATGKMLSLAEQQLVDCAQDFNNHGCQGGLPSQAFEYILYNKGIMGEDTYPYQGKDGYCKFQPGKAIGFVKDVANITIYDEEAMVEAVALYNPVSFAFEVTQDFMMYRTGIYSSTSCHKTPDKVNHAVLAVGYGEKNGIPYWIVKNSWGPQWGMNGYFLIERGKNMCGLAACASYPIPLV
Experimental: as §1, with “As substrate, the following peptides were used: peptide of SEQ ID NO: 5 (KPPKPVSD) in CTSB FRET assays and SEQ ID NO: 1 (KLRMKLPKP) in CTSH FRET assays and tested increasing doses of candidate inhibitors (20 µM, 10 µM, 1 µM, 0.1 µM).” left out

[2] = test system: A20-HA lymphoma cells co-incubated with CD8+ T-cells isolated from CL4-HA transgenic animals; assay: Co-culture assay of A20-HA lymphoma cells with CD8+ T-cells; type: cell-based, mouse; conditions: A20-HA cells pre-treated with 30uM inhibitor; for over-activation of CD8+ T-cells: 72h co-incubation
Experimental: Proteins were extracted using a buffer containing 20 mM Tris-HCl (pH 7.5) 150 mM NaCl, 1 mM Na2EDTA 1 mM EGTA 1% NP-40 1% sodium deoxycholate 2.5 mM sodium pyrophosphate 1 mM β-glycerophosphate 1 mM Na3VO4 1 µg/ml leupeptin) supplemented with protease (Sigma Aldrich, cat #11836153001) and phosphatases (Roche, cat #04906837001) inhibitors and quantified with the Bradford reagent (Bio-Rad, cat #5000006). 20-30 µg of proteins were resolved on SDS-PAGE and transferred at 20V for 20-30 minutes to Immobilon-P-membranes (Millipore). After blocking in 5% milk (Applichem, cat #A0830) in PBS-0.1%Tween (Fisher scientific, cat #BP337), membranes were incubated overnight in 5% milk in PBS-Tween with the following primary antibodies: goat anti-human Cathepsin S (RD, cat #AF1183, 1:2000), Cathepsin B (D1C7Y) XP® Rabbit (Cell signaling mAb #31718), rabbit anti-mouse Cathepsin S (Sino Biological, cat #50769-R054, 1:1000), mouse anti-human CD74 (PIN.1, StressMarq, cat #SMC-116, diluted 1:1000), rat-anti-mouse CD74 (clone ln-1, BD biosciences, cat #555317, 1:1000), rabbit anti-his-Tag (Cell Signaling, cat #D3I10, dilute 1:1000), mouse anti-human alpha-Tubulin (clone B-5-1-2, Sigma Aldrich, cat#T6072, diluted 1:10000), anti-beta actin (clone 8H10D10, ThermoFisher Scientific, cat# MA5-15452, 1:1000).
At the end of the B-cell/T cell co-culture, […] and analyzed for the proliferation of T cells stained with an Pe-Cy7 anti-mouse CD8a antibody (Clone 53-6.7, BD Biosciences, San Jose, CA, USA, cat #552877) or PercP efluor 710 rat anti-CD4 antibody (bd bioscience, cat#564379) by quantifying CellTrace violet proliferation peaks using flow cytometry. In parallel, B cell concentration was measured using cell-counting flow-cytometer (Guava easyCyte). A20-HA lymphoma cells wild-type, Ctss knock-out, B2m knock-out, and Pdl1 knock-out expressing HA as antigen were pre-treated with 30uM E64 (Apexbio Technology LLC (cat #A2576), 30uM Z-FL-COCHO (Anawa trading SA, cat #A13502-5), 30uM LY300328 (Lucerna Chem AG, cat # MCE-HY-15533) or-directly co-incubated for 72h with CellTrace violet stained CD8+ T-cells isolated from CL4-HA transgenic animals. At the end of the B-cell/T cell co-culture, cells were collected, stained with PE-Cy7 anti-mouse CD8a antibody (Clone 53-6.7, BD Biosciences, San Jose, CA, USA cat #552877) and analyzed for the proliferation of T cells stained by quantifying CellTrace violet proliferation peaks using flow cytometry. In parallel, B cell concentration was measured using cell-counting flow-cytometer (Guava easyCyte).

Compound: KLRMKLPKD [SEQ ID NO: 2]
- cleavage by CTSS as substrate (cathepsin S (CTSS)): improved cathepsin S substrate

Compound: KPPKPVSK [SEQ ID NO: 4]
- substrate for Cathepsin B (cathepsin B (CTSB)): good substrate for Cathepsin B

Compound: O=c1ccc(-c2ccco2)nn1CCNS(=O)(=O)c1ccccc1F [compound (1), 2-fluoro-N-[2-[3-(2-furanyl)-6-oxo-1(6H)-pyridazinyl]ethyl]-benzenesulfonamide]
- toxicity / cell survival [1]: well tolerated
- inhibition of cathepsin S activity (MCA fluorescent emission) (cathepsin S (CTSS)): able to inhibit cathepsin S activity
- inhibition of Cathepsin B activity (MCA fluorescent emission) (cathepsin B (CTSB)): not Cathepsin B
- inhibition of Cathepsin H activity (MCA fluorescent emission) (cathepsin H (CTSH)): not Cathepsin H

Compound: CC(C)C[C@H](NC(=O)[C@H]1O[C@@H]1C(=O)O)C(=O)NCCCCNC(=N)N [E64]
- accumulation of the small fragment of CD74, p10 [2]: observed
- over-activation of CD8+ T-cells [2]: no over-activation

Compound: Cc1oc2ncnc(N3CCCC(C(=O)NCCc4ccco4)C3)c2c1C (stereo not shown) [compound (11), 1-(5,6-dimethylfuro[2,3-d]pyrimidin-4-yl)-N-[2-(2-furanyl)ethyl]-3-piperidinecarboxamide]
- inhibition of cathepsin S activity (MCA fluorescent emission) (cathepsin S (CTSS)): able to inhibit cathepsin S activity
- inhibition of Cathepsin B activity (MCA fluorescent emission) (cathepsin B (CTSB)): not Cathepsin B
- inhibition of Cathepsin H activity (MCA fluorescent emission) (cathepsin H (CTSH)): not Cathepsin H

Compound: Cc1nc(N2CCCC(C(=O)NCc3ccco3)C2)c2c(C)c(C)oc2n1 (stereo not shown) [compound (9), N-(2-furanylmethyl)-1-(2,5,6-trimethylfuro[2,3-d]pyrimidin-4-yl)-3-piperidinecarboxamide]
- inhibition at 0.1 µM ([1]; Homo sapiens, after 72 hours of exposure to 0.1 µM, read-out: decrease of cell proliferation): ≤ 50%

Compound: KLRMKLPKP [SEQ ID NO: 1]
- cleavage by CTSS as substrate (cathepsin S (CTSS)): cleaved more efficiently

Compound: Cc1noc(C)c1CC(=O)NCCn1nc(-c2ccco2)ccc1=O [compound (5), N-[2-[3-(2-furanyl)-6-oxo-1(6H)-pyridazinyl]ethyl]-3,5-dimethyl-4-isoxazoleacetamide]
- toxicity / cell survival [1]: well tolerated
- inhibition of cathepsin S activity (MCA fluorescent emission) (cathepsin S (CTSS)): able to inhibit cathepsin S activity
- inhibition of Cathepsin B activity (MCA fluorescent emission) (cathepsin B (CTSB)): not Cathepsin B
- inhibition of Cathepsin H activity (MCA fluorescent emission) (cathepsin H (CTSH)): not Cathepsin H

Compound: Z-FL-COCHO
- accumulation of the small fragment of CD74, p10 [2]: observed
- over-activation of CD8+ T-cells [2]: no over-activation
